Inhibition and Competition % data for 1 molecule are collected here from US20120270237A9, “METHODS FOR THE IDENTIFICATION OF KINASE INTERACTING MOLECULES AND FOR THE PURIFICATION OF KINASE PROTEINS” (Cellzone AG, priority 2009, published 2012).

Holding throughout (assay): Kinobeads competition binding, HeLa Placenta lysate mix
Common to all, as to design: endogenous in cells
Common to all, as to conditions: 10 μM free compound

The target in one assay is AMPKa1 (Homo sapiens, UniProt Q13131). Put shortly:
(§1)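 Read-out is iTRAQ reporter ion quantification by nano-LC-MS/MS, comparing a lysate aliquot pretreated with 10 μM free compound to a DMSO solvent control. Kinases not bound by free compound were pulled down on beads carrying the immobilized compound, separated by SDS-PAGE and digested with trypsin.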

In the next assay the target is CaMKK2 (Homo sapiens, UniProt Q96RR4). Put shortly:
as §1

The next assay deals with JAK1 (Homo sapiens, UniProt P23458). In a few lines: as §1
Another assay has as its target T1, NEK9 (Homo sapiens, UniProt Q8TD19).
T1 sequence (Q8TD19 1-979): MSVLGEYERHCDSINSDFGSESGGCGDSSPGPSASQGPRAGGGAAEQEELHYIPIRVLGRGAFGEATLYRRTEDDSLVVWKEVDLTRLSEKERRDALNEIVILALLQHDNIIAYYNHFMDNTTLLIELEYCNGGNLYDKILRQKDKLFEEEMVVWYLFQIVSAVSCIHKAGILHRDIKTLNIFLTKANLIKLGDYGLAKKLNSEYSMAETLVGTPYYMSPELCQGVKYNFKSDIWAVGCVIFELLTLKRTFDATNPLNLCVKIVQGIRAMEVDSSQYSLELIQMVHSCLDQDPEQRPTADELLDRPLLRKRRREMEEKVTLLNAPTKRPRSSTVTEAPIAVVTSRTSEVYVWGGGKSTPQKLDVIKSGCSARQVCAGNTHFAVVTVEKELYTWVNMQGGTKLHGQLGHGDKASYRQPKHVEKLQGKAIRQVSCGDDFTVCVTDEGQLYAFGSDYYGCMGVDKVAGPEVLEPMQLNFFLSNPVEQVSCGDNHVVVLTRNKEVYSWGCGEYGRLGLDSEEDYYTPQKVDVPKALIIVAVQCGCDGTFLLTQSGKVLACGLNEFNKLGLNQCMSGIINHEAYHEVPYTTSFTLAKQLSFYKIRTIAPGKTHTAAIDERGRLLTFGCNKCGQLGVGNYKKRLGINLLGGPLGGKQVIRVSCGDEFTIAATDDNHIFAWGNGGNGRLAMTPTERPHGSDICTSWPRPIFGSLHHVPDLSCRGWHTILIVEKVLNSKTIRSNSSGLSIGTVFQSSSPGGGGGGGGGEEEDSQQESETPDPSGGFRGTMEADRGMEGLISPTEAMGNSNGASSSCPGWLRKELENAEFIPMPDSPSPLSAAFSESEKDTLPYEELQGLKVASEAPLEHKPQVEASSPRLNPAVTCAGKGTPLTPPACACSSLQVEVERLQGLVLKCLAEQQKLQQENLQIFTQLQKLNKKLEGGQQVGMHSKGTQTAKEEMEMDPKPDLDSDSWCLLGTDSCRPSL
Put shortly: as §1

In another assay the target is T2, PKD2 (Homo sapiens, UniProt Q9BZL6).
T2 sequence (Q9BZL6 1-878): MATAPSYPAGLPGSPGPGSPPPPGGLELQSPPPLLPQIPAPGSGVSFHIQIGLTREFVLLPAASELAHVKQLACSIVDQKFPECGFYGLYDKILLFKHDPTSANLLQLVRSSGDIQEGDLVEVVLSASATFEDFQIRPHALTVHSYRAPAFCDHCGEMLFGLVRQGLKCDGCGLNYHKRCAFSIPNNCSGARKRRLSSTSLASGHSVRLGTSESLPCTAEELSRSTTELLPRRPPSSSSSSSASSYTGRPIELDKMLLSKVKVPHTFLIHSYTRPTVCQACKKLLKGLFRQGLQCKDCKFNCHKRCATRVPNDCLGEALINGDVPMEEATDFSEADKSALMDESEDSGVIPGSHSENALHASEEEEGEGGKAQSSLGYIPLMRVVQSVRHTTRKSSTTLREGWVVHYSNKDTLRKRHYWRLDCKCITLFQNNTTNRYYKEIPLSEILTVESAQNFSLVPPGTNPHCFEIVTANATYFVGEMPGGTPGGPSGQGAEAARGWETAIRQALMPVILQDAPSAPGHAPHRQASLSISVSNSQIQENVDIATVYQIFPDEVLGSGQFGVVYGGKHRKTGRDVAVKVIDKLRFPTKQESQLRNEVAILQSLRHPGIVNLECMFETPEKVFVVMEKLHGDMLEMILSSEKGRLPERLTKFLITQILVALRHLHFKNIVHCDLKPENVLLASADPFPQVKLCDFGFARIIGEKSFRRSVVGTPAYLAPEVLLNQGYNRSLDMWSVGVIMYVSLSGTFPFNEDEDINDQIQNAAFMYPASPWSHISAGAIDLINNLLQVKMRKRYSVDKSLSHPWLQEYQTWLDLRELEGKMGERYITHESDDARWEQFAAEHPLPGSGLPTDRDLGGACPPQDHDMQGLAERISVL
In a few lines:
as §1

SMILES strings stand for the structures.

Sequence of AMPKa1 (Q13131 whole entry): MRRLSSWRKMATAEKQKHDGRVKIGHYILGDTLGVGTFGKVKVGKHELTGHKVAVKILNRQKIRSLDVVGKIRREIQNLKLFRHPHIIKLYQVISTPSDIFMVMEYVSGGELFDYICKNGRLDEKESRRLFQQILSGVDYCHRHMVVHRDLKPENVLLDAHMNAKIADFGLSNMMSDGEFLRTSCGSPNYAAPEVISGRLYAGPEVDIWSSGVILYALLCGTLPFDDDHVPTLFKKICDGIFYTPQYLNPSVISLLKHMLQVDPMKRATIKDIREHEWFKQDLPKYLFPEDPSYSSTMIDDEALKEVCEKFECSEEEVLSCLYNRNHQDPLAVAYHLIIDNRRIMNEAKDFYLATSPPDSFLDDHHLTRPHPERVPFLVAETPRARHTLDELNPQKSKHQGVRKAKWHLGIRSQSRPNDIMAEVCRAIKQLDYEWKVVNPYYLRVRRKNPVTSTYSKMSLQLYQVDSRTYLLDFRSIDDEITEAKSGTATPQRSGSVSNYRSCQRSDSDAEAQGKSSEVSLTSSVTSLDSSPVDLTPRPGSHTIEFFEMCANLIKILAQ
Sequence of AMPKa1 (Q9Y478 2-270 partner limits assumed): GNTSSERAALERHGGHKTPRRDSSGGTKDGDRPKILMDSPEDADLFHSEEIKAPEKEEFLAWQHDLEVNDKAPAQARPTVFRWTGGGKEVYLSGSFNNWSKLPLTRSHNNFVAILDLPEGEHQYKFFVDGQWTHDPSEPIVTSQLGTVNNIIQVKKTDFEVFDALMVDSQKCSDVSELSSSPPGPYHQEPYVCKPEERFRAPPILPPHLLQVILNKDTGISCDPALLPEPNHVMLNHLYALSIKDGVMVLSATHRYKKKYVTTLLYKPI
Sequence of AMPKa1 (P54619 whole entry partner): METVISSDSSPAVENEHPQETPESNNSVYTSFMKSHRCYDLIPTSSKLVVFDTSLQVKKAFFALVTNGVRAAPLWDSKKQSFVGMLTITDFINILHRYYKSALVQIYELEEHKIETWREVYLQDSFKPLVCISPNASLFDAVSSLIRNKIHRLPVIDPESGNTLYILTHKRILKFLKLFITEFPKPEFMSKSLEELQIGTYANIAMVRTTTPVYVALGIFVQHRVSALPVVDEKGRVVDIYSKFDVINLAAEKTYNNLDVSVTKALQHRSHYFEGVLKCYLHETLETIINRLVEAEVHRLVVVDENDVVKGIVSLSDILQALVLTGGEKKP
Sequence of CaMKK2 (Q96RR4 whole entry): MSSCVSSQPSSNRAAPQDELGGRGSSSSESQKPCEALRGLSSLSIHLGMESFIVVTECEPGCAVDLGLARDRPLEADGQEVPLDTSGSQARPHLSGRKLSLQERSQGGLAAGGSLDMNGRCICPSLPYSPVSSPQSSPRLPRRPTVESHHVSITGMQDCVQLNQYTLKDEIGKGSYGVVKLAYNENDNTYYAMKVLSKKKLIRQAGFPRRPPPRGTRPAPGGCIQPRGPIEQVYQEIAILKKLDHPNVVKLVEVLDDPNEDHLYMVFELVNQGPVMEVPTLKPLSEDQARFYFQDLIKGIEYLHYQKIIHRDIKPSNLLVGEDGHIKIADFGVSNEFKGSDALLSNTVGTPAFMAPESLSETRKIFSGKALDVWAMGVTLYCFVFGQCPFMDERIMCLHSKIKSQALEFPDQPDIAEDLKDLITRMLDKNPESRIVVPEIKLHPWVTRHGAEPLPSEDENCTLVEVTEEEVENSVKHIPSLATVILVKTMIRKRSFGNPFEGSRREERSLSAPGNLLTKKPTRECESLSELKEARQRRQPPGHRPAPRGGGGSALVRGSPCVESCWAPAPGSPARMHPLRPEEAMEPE
Sequence of JAK1 (P23458 whole entry): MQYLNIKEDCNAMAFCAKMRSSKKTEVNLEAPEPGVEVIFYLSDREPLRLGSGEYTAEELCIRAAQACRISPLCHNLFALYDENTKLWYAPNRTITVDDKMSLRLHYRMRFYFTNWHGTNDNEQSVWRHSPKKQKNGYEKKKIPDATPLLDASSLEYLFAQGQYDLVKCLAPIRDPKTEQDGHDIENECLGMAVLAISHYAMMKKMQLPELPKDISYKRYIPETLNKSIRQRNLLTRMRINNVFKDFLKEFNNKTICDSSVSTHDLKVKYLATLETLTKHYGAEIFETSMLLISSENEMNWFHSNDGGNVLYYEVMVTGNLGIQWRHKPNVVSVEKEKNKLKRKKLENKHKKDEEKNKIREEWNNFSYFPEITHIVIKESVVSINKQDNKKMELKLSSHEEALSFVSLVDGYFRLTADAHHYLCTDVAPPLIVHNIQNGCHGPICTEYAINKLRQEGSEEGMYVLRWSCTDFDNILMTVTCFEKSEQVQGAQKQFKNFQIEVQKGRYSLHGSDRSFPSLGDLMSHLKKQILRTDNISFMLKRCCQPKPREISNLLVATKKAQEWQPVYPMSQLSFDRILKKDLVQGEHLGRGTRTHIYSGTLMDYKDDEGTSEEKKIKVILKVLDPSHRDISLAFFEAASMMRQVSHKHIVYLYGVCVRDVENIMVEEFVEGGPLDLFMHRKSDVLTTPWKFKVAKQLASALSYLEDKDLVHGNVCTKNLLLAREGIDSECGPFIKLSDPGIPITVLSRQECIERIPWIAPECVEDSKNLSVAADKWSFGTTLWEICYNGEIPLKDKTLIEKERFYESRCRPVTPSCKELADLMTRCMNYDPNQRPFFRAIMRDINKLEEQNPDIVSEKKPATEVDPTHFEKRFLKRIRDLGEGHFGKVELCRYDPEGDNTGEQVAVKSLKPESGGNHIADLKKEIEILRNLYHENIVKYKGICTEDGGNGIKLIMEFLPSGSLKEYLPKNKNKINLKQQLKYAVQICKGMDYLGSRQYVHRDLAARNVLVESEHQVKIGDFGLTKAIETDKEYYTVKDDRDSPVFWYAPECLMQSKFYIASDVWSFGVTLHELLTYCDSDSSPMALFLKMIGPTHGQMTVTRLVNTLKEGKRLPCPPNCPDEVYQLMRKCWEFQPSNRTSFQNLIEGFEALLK

`CS(=O)(=O)Nc1ccccc1Nc1nc(Nc2cccc(OCCN)c2)ncc1Cl` [CZC31326, N-(2-(2-(3-(2-aminoethoxy)phenylamino)-5-chloropyrimidin-4-ylamino)phenyl)methanesulfonamide]: the inhibition (usually the drop in the measured response relative to a control, in per cent) at 10 µM came to 94.9% at AMPKa1, 94.3% on CaMKK2, 89% at NEK9 and 95.4% on PKD2. In addition, the Competition % at JAK1 is given as 95%.
